Test [1] deals with isolated rat brain hippocampal section preparation. As to the kind of experiment: isolated rat brain hippocampal section preparation, extra-cellular field potentials after electrical stimulation. To be noted: in vitro, single stimulus excitation and theta-burst stimulation. As for the experimental part:
The measured field potentials were recorded after a single stimulus excitation and theta-burst stimulation.

The subject of another test is Fischer-344 rats. As to the kind of experiment: tele-stereo-EEG on unrestrained rats. Type of test: in vivo, rat. To be noted: oral administration; frontal cortex, hippocampus, striatum, reticular formation. As for the experimental part: Supplementing in-vivo experiments on unrestrained rats by means of quantitative detection of the electric brain activity (tele-stereo-EEG). Observed were adult, unrestrained Fischer-344 rats with implanted 4 bipolar concentric brain electrodes. A continuous in-vivo analysis of the electric field potential (tele-stereo-EEG) of the frontal cortex, hippocampus, striatum, and reticular formation was performed analogous to Dimpfel et. al 1986. Additionally, the mobility of the rats was measured using a video tracking system by GJB […] GmbH, […], Germany. […] The “tele-stereo-EEG” model on unrestrained rats was chosen as the in-vivo model to validate results that were obtained following the rat-hippocampus in-vitro experiments, in particular the crossing of the blood-brain barrier for the described substances.

Structures are written as SMILES.

For the compound `N[C@@H](CCC(=O)O)C(=O)O` [Glutamic acid, glutamic acid], the “influence on hippocampal electrical activity” value (“influence” below) in test [1] was “stimulating substances”.
For the compound `O=C(O)[C@]1(O)C[C@@H](O)[C@@H](O)[C@H](O)C1` [quinic acid], the “influence” value in test [1] is given as “stimulating substances”. In addition, in the test on Fischer-344 rats, the “electric field potentials (tele-stereo-EEG)” value is given as “principally contribute to the measured results”.
`CCNC(=O)CC[C@H](N)C(=O)O` [theanine, 5-N-ethyl-L-glutamine]: the “influence” value in test [1] is reported as “opposite effect”. For the same compound, in the test with Fischer-344 rats, the “electric field potentials (tele-stereo-EEG)” value is recorded as “principally contribute to the measured results”.
The like results for `O=C(O[C@@H]1C[C@@](O)(C(=O)O)C[C@@H](O)[C@@H]1O)c1cc(O)c(O)c(O)c1` [theogallin, 5-galloyl quinic acid] were, in that order, “stimulating substances” and “principally contribute to the measured results”.
